Experimental data reported in patent US8765735B2, “Isoxazolines as inhibitors of fatty acid amide hydrolase” (Infinity Pharmaceuticals, Inc., priority 2009, dated 2014).

Molecular target: T1, human FAAH (Homo sapiens, UniProt O00519)
T1 construct: host or cells: COS-7 cells, transient transfection; 13,000 g membrane fraction solubilised in 1% Triton X-100
T1 sequence (O00519 1-579): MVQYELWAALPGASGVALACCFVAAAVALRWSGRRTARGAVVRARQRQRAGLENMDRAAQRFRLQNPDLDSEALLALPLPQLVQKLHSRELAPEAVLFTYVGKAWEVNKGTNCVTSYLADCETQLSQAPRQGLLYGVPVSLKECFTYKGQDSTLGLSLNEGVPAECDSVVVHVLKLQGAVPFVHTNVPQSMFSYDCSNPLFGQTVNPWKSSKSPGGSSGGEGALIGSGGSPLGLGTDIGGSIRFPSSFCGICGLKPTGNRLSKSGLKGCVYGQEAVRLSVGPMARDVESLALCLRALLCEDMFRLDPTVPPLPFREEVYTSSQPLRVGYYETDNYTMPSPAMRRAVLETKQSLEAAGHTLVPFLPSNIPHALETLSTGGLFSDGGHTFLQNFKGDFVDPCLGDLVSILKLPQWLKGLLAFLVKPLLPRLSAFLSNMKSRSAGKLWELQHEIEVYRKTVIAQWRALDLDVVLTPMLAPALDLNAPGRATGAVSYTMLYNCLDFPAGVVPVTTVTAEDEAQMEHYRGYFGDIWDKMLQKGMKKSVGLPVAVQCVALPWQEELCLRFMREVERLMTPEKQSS
Assay: Inhibition of human FAAH (fluorescence assay, AMC arachidonoyl amide substrate)
Assay type: biochemical
Settings: solubilized human FAAH from transfected COS-7 cells; 30 min preincubation; 20 μM AMC-arachidonoyl amide; 4 h at room temperature
Procedure: Human FAAH Preparation: COS-7 cells were split the day before, 1:5 into 150 mm×25 mm cell culture dishes (Corning Inc., Cat. No. 430599). Transient transfection took place at 30-40% confluency according to FuGENE 6 Transfection Reagent (Roche, Cat. No. 11814 443 001).
Transfection Procedure: The FuGENE transfection 6 reagent (45 uL) was added to 1410 μL of media (DMEM, serum free without pen/strep) in a 15 mL conical tube and incubated at room temp for 5 minutes, followed by the addition of FAAH plasmid DNA (15 μg) (OriGene Cat. No. TC119221, Genbank Accession No. NM_001441.1, 0.67 ug/uL) and a further incubation of 15 minutes at room temperature. The resulting solution was added into one dish of 30-40% confluent COS-7 cells in a drop-wise manner. The COS-7 cell dish was subsequently incubated for 48 hours. The cells are then harvested.
Harvest procedure: Media was aspirated from the dishes and the cells rinsed with 10 mL PBS. The PBS was removed and 3 mL of PBS added to the dish. The dish was scraped to resuspend the cells, and the subsequent cell suspension collected into a 15 mL conical tube. The cells were pelleted by centrifugation at 1200 rpm for 5 minutes in a bench top centrifuge. PBS was removed and the cell pellet snap frozen in liquid nitrogen and stored at −80° C.
COS-7 cells—FAAH purification: • (1) Fractionation: Frozen cell pellets from transient transfections were thawed on ice and resuspended in 12.5 mM Hepes pH 8.0, 100 mM NaCl, 1 mM EDTA (10 mL/0.2 g cell pellet). The pellets were dounce homogenized and then sonicated to produce cell extract. The cell extract was subsequently centrifuged at 1000 g to remove cellular debris. The pellet was discarded and the supernatant centrifuged at 13,000 g for 20 minutes. The pellet contained membrane bound FAAH. The supernatant was discarded and the pellet resolubilized. • (2) Re-solubilization: The fraction of interest, (13,000 g, membrane fraction) was re-suspended in 2.3 mL re-suspension buffer (20 mM Hepes pH 7.8, 10% v/v Glycerol, 1 mM EDTA, 1% Triton X-100) and the sample incubated on ice for 1 hour and then centrifuged to remove any particulate matter. The supernatant containing solubilized human FAAH was aliquoted and snap frozen in liquid nitrogen and stored at 80° C. until use. • (3) Characterization: Protein Concentration determined by Bradford assay. • SDS gel and Western blot to confirm presence of FAAH • FAAH activity assay • Km determination—96-well assay • Linear dependence—96-well assay • Standard compound Ki determination—384-well assay
Human FAAH assay; Experimental Protocol: A 0.1 mg/mL Human FAAH solution was made up in FAAH reaction buffer, and 24 ul pipeted into a 384 well plate. To this was added 1 μL of a 3 fold serially diluted inhibitor from a DMSO stock solution. The FAAH solution and inhibitor were incubated for 30 minutes at room temperature. The FAAH reaction was initiated by the addition of 25 μL of 40 μM AMC Arachidonoyl Amide in FAAH reaction buffer, yielding a final reaction human FAAH preparation concentration of 0.05 mg/ml and AMC-Arachidonoyl substrate concentration of 20 μM, reaction volume 50 μL. The reaction was allowed to proceed for 4 hours at room temperature. The reaction was stopped by the addition of 25 μL 12 μM a-ketoheterocycle (Cayman Chemicals, catalogue #10435). The microtiter plate was read in the envision plate reader.
The raw fluorescence was plotted on the y axis and the inhibitor concentration on the x axis to give a dose response inhibition curve. The data was fitted to a single site competitive inhibition equation, fixing the Km for the human enzyme to 12 μM and 9 μM respectively.

Compound | Ki [nM]
Cn1nccc1-c1ccc(OC2=NO[C@]3(CCc4cc(OC(F)(F)F)ccc43)C2)cn1 [III-71a] | ≤ 100
Cn1nccc1-c1ccc(OC2=NO[C@@]3(CCc4cc(OC(F)(F)F)ccc43)C2)cn1 [III-71b] | ≤ 100
O=C(O)c1ccc(OC2=NO[C@@]3(CCc4cc(OC(F)(F)F)ccc43)C2)cn1 [III-74b] | ≤ 100

Other lines, results leading:

Ki [nM] | Compound
≤ 100 | Cn1cc(-c2ccc(OC3=NO[C@]4(CCc5cc(OC(F)(F)F)ccc54)C3)cn2)cn1 [III-70a]
≤ 100 | FC(F)(F)Oc1ccc2c(c1)CC[C@@]21CC(Oc2cncc(-c3nnco3)c2)=NO1 [III-73a]
≤ 100 | FC(F)(F)Oc1ccc2c(c1)CC[C@]21CC(Oc2cncc(-c3nnco3)c2)=NO1 [III-73b]
